assay: recombinant barcode read abundance after kanamycin selection (control-corrected) (log10(CPM+1)); higher = more efficient recombination; sequences stand for … in AGTGCAGAGAAAATCGGCCAGTTTTCTCTGCCTGCAGTCCGCATGCCGT…AGATTTATGCAGCGGACTGCCTTTCTCCCAAAGTGATAAACCGGACAGTATCATGGACCGGTTTTCCCGGTAATCCGTATTTGCAAGGTTGGTTTCACT; site = the 11-nt target
Summary of the method: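 Pooled E. coli screen pairing targets with IS621 bridge RNA target-binding loops. Each oligo (promoter, target, barcode, J23119-driven first 104 bridge RNA bases) was Gibson-cloned into a vector with the remaining 73 bp and T7-inducible recombinase, then co-electroporated with a donor plasmid. Two replicates each were plated on chloramphenicol/ampicillin LB agar (control) or chloramphenicol/ampicillin/kanamycin with 0.1 mM IPTG. Recombination efficiency is recombinant-junction barcode counts as CPM, averaged, control-corrected, reported as log10(CPM+1).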
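Further: IS621 recombinase and bridge RNA in Escherichia coli cells.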

Sequence | recombinant barcode read abundance (log10)
TCGTACCCTTGGGTTCTAACCTGTTGCAA (site TCGTACCCTTT) | 0.143
TCGTCTACTTGGGTTCTAACCTGTTGCTC (site ATCAACCCTTG) | 0.117
TCGTCTACTTGGGTTCTAACCTGTTGCTC (site TCGTCTACTGA) | 0.26
TCGTGCCCTTGGGTTCTAACCTGTTGCGT (site CCGTGCCCTAC) | 0.0929
TCGTGCCCTTGGGTTCTAACCTGTTGCGT (site TCGTGCCCTAC) | 0.14
TCGTTTCCTTGGGTTCTAACCTGTTGCAT (site AGCCAGGCTCC) | 0.0113
TCGTTTCCTTGGGTTCTAACCTGTTGCAT (site TCGTTTCCTAT) | 0.0275
TCTAAACCTTGGGTTCTAACCTGTTGCCT (site TCTAAACCTAG) | 0.205
TCTAAACCTTGGGTTCTAACCTGTTGCCT (site TCTCAACCTAG) | 0.0726
TCTAACACTTGGGTTCTAACCTGTTGCCT (site ACTAACACTAG) | 0.0882
TCTAACACTTGGGTTCTAACCTGTTGCCT (site CCTAACACTAG) | 0.0793
TCTAACACTTGGGTTCTAACCTGTTGCCT (site GCTAACACTAG) | 0.0247
TCTAACACTTGGGTTCTAACCTGTTGCCT (site TCTAACACTAG) | 0.206
TCTAAGGCTTGGGTTCTAACCTGTTGCCT (site TCAAAGGCTAG) | 0.36
TCTAAGGCTTGGGTTCTAACCTGTTGCCT (site TCCAAGGCTAG) | 0.108
TCTAAGGCTTGGGTTCTAACCTGTTGCCT (site TCGAAGGCTAG) | 0.048
TCTAAGGCTTGGGTTCTAACCTGTTGCCT (site TCTAAGGCTAG) | 0.043
TCTAAGTCTTGGGTTCTAACCTGTTGCCA (site TCTAAGTCTAG) | 0.045
TCTAAGTCTTGGGTTCTAACCTGTTGCCA (site TCTAAGTCTCG) | 0.144
TCTAAGTCTTGGGTTCTAACCTGTTGCCA (site TCTAAGTCTGG) | 0.695
TCTAAGTCTTGGGTTCTAACCTGTTGCCA (site TCTAAGTCTTG) | 0.0536
TCTACATCTTGGGTTCTAACCTGTTGCCT (site TCTACATCTAG) | 0.0728
TCTACATCTTGGGTTCTAACCTGTTGCCT (site TCTACCTCTAG) | 0.0374
TCTACATCTTGGGTTCTAACCTGTTGCCT (site TCTACGTCTAG) | 0.0302
TCTACATCTTGGGTTCTAACCTGTTGCCT (site TCTACTTCTAG) | 0.0355
TCTAGAACTTGGGTTCTAACCTGTTGCCT (site TCTAGAACTAG) | 0.0829

Sequence | recombinant barcode read abundance (log10)
TCTAGAACTTGGGTTCTAACCTGTTGCCT (site TCTAGACCTAG) | 0.0178
TCTAGAACTTGGGTTCTAACCTGTTGCCT (site TCTAGAGCTAG) | 0.0689
TCTAGAACTTGGGTTCTAACCTGTTGCCT (site TCTAGATCTAG) | 0.0276
TCTAGACCTTGGGTTCTAACCTGTTGCCA (site TCTAGACCTTG) | 0.0618
TCTAGACCTTGGGTTCTAACCTGTTGCCA (site TCTAGTCCTAG) | 0.564
TCTATGTCTTGGGTTCTAACCTGTTGCCT (site TCTATGACTAG) | 0.182
TCTATGTCTTGGGTTCTAACCTGTTGCCT (site TCTATGTCTAG) | 0.107
TCTCAGGCTTGGGTTCTAACCTGTTGCAG (site TATCAGACTCT) | 0.0549
TCTCAGGCTTGGGTTCTAACCTGTTGCAG (site TCTCAGGCTCT) | 0.445
TCTCCTCCTTGGGTTCTAACCTGTTGCAT (site GAGGTCACTTA) | 0.115
TCTCCTCCTTGGGTTCTAACCTGTTGCAT (site TCTCCTCCTAT) | 0.679
TCTCGGTCTTGGGTTCTAACCTGTTGCCT (site TCACGGTCTAG) | 0.71
TCTCGGTCTTGGGTTCTAACCTGTTGCCT (site TCTCGGTCTAG) | 0.277
TCTCGTTCTTGGGTTCTAACCTGTTGCTA (site AGAGTAACTGT) | 0.127
TCTCGTTCTTGGGTTCTAACCTGTTGCTA (site TCTCGTTCTTA) | 0.102
TCTGATTCTTGGGTTCTAACCTGTTGCCG (site TCTGATTCTCG) | 0.197
TCTGATTCTTGGGTTCTAACCTGTTGCCG (site TCTTATTCTAG) | 0.133
TCTGATTCTTGGGTTCTAACCTGTTGCGT (site TCTAATTCTAC) | 0.352
TCTGATTCTTGGGTTCTAACCTGTTGCGT (site TCTCATTCTAC) | 0.00698
TCTGATTCTTGGGTTCTAACCTGTTGCGT (site TCTGATTCTAC) | 1.4
TCTGATTCTTGGGTTCTAACCTGTTGCGT (site TCTTATTCTAC) | 0.212
TCTGGCACTTGGGTTCTAACCTGTTGCCT (site TCCAGCACTAG) | 0.205
TCTGGCACTTGGGTTCTAACCTGTTGCCT (site TCTGGCACTAG) | 0.0487
TCTGGCCCTTGGGTTCTAACCTGTTGCCT (site CACCCTTCTGA) | 0.124
TCTGGCCCTTGGGTTCTAACCTGTTGCCT (site TCTGGCCCTAG) | 0.478
TCTGTATCTTGGGTTCTAACCTGTTGCCT (site ACTGTATCTAG) | 0.28

Sequence | recombinant barcode read abundance (log10)
TCTGTATCTTGGGTTCTAACCTGTTGCCT (site CCTGTATCTAG) | 0.0921
TCTGTATCTTGGGTTCTAACCTGTTGCCT (site GCTGTATCTAG) | 0.152
TCTGTATCTTGGGTTCTAACCTGTTGCCT (site TCTGTATCTAG) | 0.614
TCTTAGACTTGGGTTCTAACCTGTTGCCG (site TCTTAGACTAG) | 0.231
TCTTAGACTTGGGTTCTAACCTGTTGCCG (site TCTTAGACTCG) | 0.232
TCTTAGACTTGGGTTCTAACCTGTTGCCT (site TCTTAGACTAG) | 0.0224
TCTTAGACTTGGGTTCTAACCTGTTGCCT (site TCTTAGACTCG) | 0.0132
TCTTAGACTTGGGTTCTAACCTGTTGCTT (site TCTTAGACTAA) | 0.17
TCTTAGACTTGGGTTCTAACCTGTTGCTT (site TGTTGGACTAA) | 0.0581
TCTTCCACTTGGGTTCTAACCTGTTGCCT (site ACTTCCACTAG) | 0.0827
TCTTCCACTTGGGTTCTAACCTGTTGCCT (site CCTTCCACTAG) | 0.0781
TCTTCCACTTGGGTTCTAACCTGTTGCCT (site GCTTCCACTAG) | 0.0327
TCTTCCACTTGGGTTCTAACCTGTTGCCT (site TCTTCCACTAG) | 0.385
TCTTCGACTTGGGTTCTAACCTGTTGCAG (site GGAAAAGCTAA) | 0.0479
TCTTCGACTTGGGTTCTAACCTGTTGCAG (site TCTTCGACTCT) | 0.111
TCTTTACCTTGGGTTCTAACCTGTTGCCT (site ACTTTACCTAG) | 0.146
TCTTTACCTTGGGTTCTAACCTGTTGCCT (site CCTTTACCTAG) | 0.182
TCTTTACCTTGGGTTCTAACCTGTTGCCT (site GCTTTACCTAG) | 0.043
TCTTTACCTTGGGTTCTAACCTGTTGCCT (site TCTTTACCTAG) | 0.0757
TGAAATCCTTGGGTTCTAACCTGTTGCCT (site GGATATCCTAG) | 0.848
TGAAATCCTTGGGTTCTAACCTGTTGCCT (site TGAAATCCTAG) | 0.304
TGAATTACTTGGGTTCTAACCTGTTGCCT (site TGAAATACTAG) | 0.116
TGAATTACTTGGGTTCTAACCTGTTGCCT (site TGAACTACTAG) | 0.108
TGAATTACTTGGGTTCTAACCTGTTGCCT (site TGAAGTACTAG) | 0.033
TGAATTACTTGGGTTCTAACCTGTTGCCT (site TGAATTACTAG) | 0.102

From the supplement of paper PMC11208160
